Measured values: ChEMBL document CHEMBL1201862, “PubChem BioAssay data set” (2004)
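Where inhibition never reached the appropriate level, the endpoint shown equals the highest concentration tested. Otherwise, values were interpolated linearly from a five-concentration, 48-hour dose response in 96-well plates. Abbreviation: GI50, concentration required for 50% inhibition of growth.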 Activity calls are given as the source filed them. Rule as the data show it: active = GI50 up to about 1.1 µM and inactive = higher.

Experiments:
Assay in all cases: DTP human tumour cell line panel, 48 h
786-0 = tested on: 786-0
A549 = tested on: A549
COLO 205 = tested on: COLO 205
DU-145 = tested on: DU-145
HCC 2998 = tested on: HCC 2998
HCT-116 = tested on: HCT-116
HCT-15 = tested on: HCT-15
HOP-62 = tested on: HOP-62
HT-29 = tested on: HT-29
IGROV-1 = tested on: IGROV-1
LOX IMVI = tested on: LOX IMVI
M14 = tested on: M14
MOLT-4 = tested on: MOLT-4
NCI-H226 = tested on: NCI-H226
OVCAR-8 = tested on: OVCAR-8
SF-539 = tested on: SF-539
SNB-75 = tested on: SNB-75
SW-620 = tested on: SW-620
T47D = tested on: T47D
UO-31 = tested on: UO-31

Structure (SMILES)	GI50 (786-0)	GI50 (A549)	GI50 (COLO 205)	GI50 (DU-145)	GI50 (HCC 2998)	GI50 (HCT-116)	GI50 (HCT-15)	GI50 (HOP-62)	GI50 (HT-29)	GI50 (IGROV-1)	GI50 (LOX IMVI)	GI50 (M14)	GI50 (MOLT-4)	GI50 (NCI-H226)	GI50 (OVCAR-8)	GI50 (SF-539)	GI50 (SNB-75)	GI50 (SW-620)	GI50 (T47D)	GI50 (UO-31)
O=C(O)C(Sc1ccc(Cl)cc1)Sc1ccc(Cl)cc1	48 µM (inactive)	29.9 µM (inactive)	25.9 µM (inactive)	71 µM (inactive)	25.6 µM (inactive)	35.2 µM (inactive)	36 µM	79.3 µM (inactive)	43.3 µM (inactive)	39.8 µM (inactive)	41.9 µM (inactive)	39.6 µM (inactive)	41.3 µM (inactive)	51.9 µM (inactive)	43.9 µM (inactive)	39.3 µM (inactive)	89.7 µM (inactive)	58.7 µM (inactive)	64 µM (inactive)	29.7 µM (inactive)
O=C(CCCN1CCC2(CC1)CC(=O)N(N1CCOCC1)C2=O)c1ccccc1	> 100 µM (inactive)	> 100 µM (inactive)	> 100 µM (inactive)	> 100 µM (inactive)	> 100 µM (inactive)	> 100 µM (inactive)	> 100 µM	> 100 µM (inactive)	> 100 µM (inactive)	> 100 µM (inactive)	> 100 µM (inactive)	> 100 µM (inactive)	> 100 µM (inactive)	> 100 µM (inactive)	> 100 µM (inactive)	> 100 µM (inactive)	> 100 µM (inactive)	> 100 µM (inactive)	> 100 µM (inactive)	> 100 µM (inactive)
CCOC(=O)c1cccc(/N=N/Nc2cccc(C(=O)OCC)c2)c1	17.9 µM (inactive)	74.5 µM (inactive)	> 100 µM (inactive)	> 100 µM (inactive)	> 100 µM (inactive)	31.9 µM (inactive)	> 100 µM	9.12 µM (inactive)	52.8 µM (inactive)	38.9 µM (inactive)	> 100 µM (inactive)	> 100 µM (inactive)	> 100 µM (inactive)	43.5 µM (inactive)	25.5 µM (inactive)	14.2 µM (inactive)	14.6 µM (inactive)	68.7 µM (inactive)	> 100 µM (inactive)	17.7 µM (inactive)
COc1cc(OC)c2nc3occc3c(OC)c2c1	96.4 µM (inactive)	> 100 µM (inactive)	> 100 µM (inactive)	> 100 µM (inactive)	41.6 µM (inactive)	76 µM (inactive)	30.4 µM	> 100 µM (inactive)	> 100 µM (inactive)	> 100 µM (inactive)	83.2 µM (inactive)	> 100 µM (inactive)	61.9 µM (inactive)	> 100 µM (inactive)	99.5 µM (inactive)	> 100 µM (inactive)	67.8 µM (inactive)	> 100 µM (inactive)	61.2 µM (inactive)	33.7 µM (inactive)
N=C(N)N/N=C(\c1ccc(F)cc1)c1ccc(C(F)(F)F)cc1	0.294 µM (active)	0.412 µM (active)	0.294 µM (active)	0.538 µM (active)	0.542 µM (active)	0.104 µM (active)	0.294 µM	0.273 µM (active)	0.412 µM (active)	0.284 µM (active)	0.323 µM (active)	0.298 µM (active)	0.358 µM (active)	0.348 µM (active)	0.376 µM (active)	0.27 µM (active)	1.75 µM (inactive)	0.254 µM (active)	2.08 µM (inactive)	0.53 µM (active)
CNC(=O)NC(CCCCNC(=O)OCc1ccccc1)C(=O)OCc1ccccc1 (stereo not given)	80.2 µM (inactive)	> 82 µM (inactive)	16.3 µM (inactive)	> 100 µM (inactive)	30.5 µM (inactive)	81.8 µM (inactive)	> 96.8 µM	> 100 µM (inactive)	> 100 µM (inactive)	> 100 µM (inactive)	34.3 µM (inactive)	19.5 µM (inactive)	19 µM (inactive)	42.9 µM (inactive)	61.4 µM (inactive)	30.3 µM (inactive)	5.69 µM (inactive)	> 97.5 µM (inactive)	28.1 µM (inactive)	47.3 µM (inactive)
COc1cc2c(cc1OC)C(=O)/C(=C/c1ccccc1)C2	90.6 µM (inactive)	> 100 µM (inactive)	> 100 µM (inactive)	> 94.2 µM (inactive)	78.3 µM (inactive)	48 µM (inactive)	> 82 µM	52.5 µM (inactive)	45.3 µM (inactive)	> 67 µM (inactive)	86.5 µM (inactive)	> 62.5 µM (inactive)	16.3 µM (inactive)	> 81.8 µM (inactive)	> 100 µM (inactive)	43.6 µM (inactive)	> 39.4 µM (inactive)	94 µM (inactive)	63.5 µM (inactive)	> 83.8 µM (inactive)
CC(=O)Nc1ccc(N2C(=O)/C(=C\c3cccc(Oc4ccccc4)c3)S(=O)(=O)C2c2ccccc2)cc1 (stereo not given)	> 100 µM (inactive)	> 100 µM (inactive)	> 100 µM (inactive)	39.1 µM (inactive)	> 100 µM (inactive)	37.5 µM (inactive)	> 100 µM	> 100 µM (inactive)	41.5 µM (inactive)	51.2 µM (inactive)	41 µM (inactive)	67 µM (inactive)	28.2 µM (inactive)	66.2 µM (inactive)	35.7 µM (inactive)	24.3 µM (inactive)	81.3 µM (inactive)	33.3 µM (inactive)	35.9 µM (inactive)	29.7 µM (inactive)
CC(C)(C)OC(=O)NC(CSCc1ccc(C(=O)c2ccccc2)cc1)C(=O)N1CCN(CCCCN2c3ccccc3Sc3cc(N=[N+]=[N-])ccc32)CC1 (stereo not given)	> 100 µM (inactive)	> 100 µM (inactive)	> 100 µM (inactive)	> 100 µM (inactive)	> 100 µM (inactive)	> 100 µM (inactive)	> 100 µM	> 100 µM (inactive)	> 100 µM (inactive)	> 100 µM (inactive)	> 100 µM (inactive)	> 100 µM (inactive)	> 100 µM (inactive)	> 100 µM (inactive)	> 100 µM (inactive)	> 100 µM (inactive)	58.7 µM (inactive)	> 100 µM (inactive)	> 100 µM (inactive)	> 100 µM (inactive)
N#Cc1sc2nc3ccccc3n2c1N	> 100 µM (inactive)	47.4 µM (inactive)	78.7 µM (inactive)	94.8 µM (inactive)	36.2 µM (inactive)	> 100 µM (inactive)	65.5 µM	84.5 µM (inactive)	75 µM (inactive)	58.7 µM (inactive)	40.8 µM (inactive)	> 100 µM (inactive)	31.4 µM (inactive)	95.9 µM (inactive)	78.2 µM (inactive)	55.3 µM (inactive)	29.7 µM (inactive)	92.5 µM (inactive)	89.7 µM (inactive)	36.6 µM (inactive)
c1ccc(CSC(SCc2ccccc2)c2ccc3c(c2)OCO3)cc1	> 10 µM (inactive)	> 10 µM (inactive)	> 10 µM (inactive)	> 10 µM (inactive)	> 10 µM (inactive)	> 10 µM (inactive)	> 10 µM	> 10 µM (inactive)	> 10 µM (inactive)	> 10 µM (inactive)	> 10 µM (inactive)	> 10 µM (inactive)	> 10 µM (inactive)	> 10 µM (inactive)	> 10 µM (inactive)	> 10 µM (inactive)	> 10 µM (inactive)	> 10 µM (inactive)	> 10 µM (inactive)	> 10 µM (inactive)
O=C1/C(=C/c2ccccc2)N=C(c2ccccc2)N1n1c(-c2ccccc2)nc2ccccc2c1=O	> 100 µM (inactive)	47.6 µM (inactive)	> 100 µM (inactive)	83 µM (inactive)	> 100 µM (inactive)	53 µM (inactive)	72.4 µM	> 100 µM (inactive)	70.5 µM (inactive)	> 100 µM (inactive)	35.6 µM (inactive)	> 100 µM (inactive)	30.6 µM (inactive)	64 µM (inactive)	> 100 µM (inactive)	83 µM (inactive)	> 100 µM (inactive)	> 100 µM (inactive)	> 100 µM (inactive)	83.2 µM (inactive)
CCO[C@@]12CCC3CC4CC[C@@](OCC)(O1)C4C32 (stereo not given in full)	> 100 µM (inactive)	> 100 µM (inactive)	> 100 µM (inactive)	> 100 µM (inactive)	> 100 µM (inactive)	> 100 µM (inactive)	> 100 µM	> 100 µM (inactive)	> 100 µM (inactive)	> 100 µM (inactive)	> 100 µM (inactive)	> 100 µM (inactive)	> 100 µM (inactive)	> 100 µM (inactive)	> 100 µM (inactive)	> 100 µM (inactive)	> 100 µM (inactive)	> 100 µM (inactive)	> 100 µM (inactive)	> 100 µM (inactive)
COc1ccc(-c2nnc3nc4ccccc4n3c2O)cc1	> 100 µM (inactive)	> 100 µM (inactive)	> 100 µM (inactive)	> 100 µM (inactive)	> 100 µM (inactive)	> 100 µM (inactive)	> 100 µM	> 100 µM (inactive)	> 100 µM (inactive)	> 100 µM (inactive)	> 100 µM (inactive)	> 100 µM (inactive)	> 100 µM (inactive)	> 100 µM (inactive)	> 100 µM (inactive)	> 100 µM (inactive)	41.9 µM (inactive)	> 100 µM (inactive)	> 100 µM (inactive)	> 100 µM (inactive)
